Molecules are shown by their SMILES. pEC50: −log10 of the molar value.

The assay deals with T1, hGPR40 (Homo sapiens, UniProt O14842).
T1 construct: expressed in transfected cells
T1 sequence (O14842 whole entry): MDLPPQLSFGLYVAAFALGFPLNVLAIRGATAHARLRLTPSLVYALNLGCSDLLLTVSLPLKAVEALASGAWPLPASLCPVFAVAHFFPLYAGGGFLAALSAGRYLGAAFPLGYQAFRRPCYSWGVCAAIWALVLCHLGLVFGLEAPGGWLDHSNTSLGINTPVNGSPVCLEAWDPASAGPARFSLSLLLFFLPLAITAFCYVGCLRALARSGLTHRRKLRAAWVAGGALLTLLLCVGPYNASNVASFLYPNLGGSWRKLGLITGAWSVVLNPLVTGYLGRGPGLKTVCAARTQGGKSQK
Put plainly: Calcium flux assay to detect GPR40 activation. The class given is cell-based. The settings on record: CHO-K cells stably expressing hGPR40; Fluo-4 NW; read for 4 min at 5 s intervals. A digest of the protocol:
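CHO-K cells stably expressing hGPR40 were cultured 24 h at 37 °C and loaded with Fluo-4 NW for 30 min at 37 °C plus 30 min at RT. Compounds diluted in HEPES buffer were added, and calcium fluorescence was recorded for 4 min at 5 s intervals.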
(In general: A change in cytosolic calcium serves as a functional read-out for many receptors and channels.)
In the case of `CO/N=C(\COc1ccc(COc2ccc(C(O)CC(=O)O)cc2)cc1)c1ccccc1` (stereo not shown) [Compound 118, 3-Hydroxy-3-{4-[(4-{[(2Z)-2-(methoxyimino)-2-phenylethyl]oxy}benzyl)oxy]phenyl}propanoic acid], the negative-log EC50 (pEC50) was under 7.00.

Regarding `CO/N=C(\COc1ccc(COc2ccc(/C(CC(=O)O)=N\Oc3ccccc3)cc2)cc1)c1ccccc1` [Compound 123, (3E,3Z)-3-{4-[(4-{[(2Z)-2-(Methoxyimino)-2-phenylethyl]oxy}benzyl)oxy]phenyl}-3-(phenoxyimino) propanoic acid], the negative-log EC50 (pEC50) was under 7.00. For `CO/N=C(\COc1cccc(CNc2ccc(CCC(=O)O)cc2)c1)c1ccccc1` [Compound 5] the value was under 7.00; for `CO/N=C(\COc1ccc(COc2ccc(C3CC3C(=O)O)cc2)cc1)c1ccc(C#N)cc1` (stereo not shown) [Compound 51, Sodium 2-{4-[(4-{[(2Z)-2-(4-cyanophenyl)-2-(methoxyimino)ethyl]oxy}benzyl)oxy]phenyl}cyclopropanecarboxylate], over 8.00. For `CO/N=C(\COc1ccc(COc2ccc(C(C#N)CC(=O)O)c(F)c2)cc1)c1ccccc1` (stereo not shown) [Compound 77, 3-Cyano-3-{2-fluoro-4-[(4-{[(2Z)-2-(methoxyimino)-2-phenylethyl]oxy}benzyl)oxy]phenyl}propanoic acid] the value was over 8.00; for `CO/N=C(\COc1ccc(CNc2ccc(CCC(=O)O)cc2)cc1)c1ccccc1C` [Compound 6, 3-{4-[(4-{[(2Z)-2-(Methoxyimino)-2-(2-methylphenyl)ethyl]oxy}benzyl)amino]phenyl}propanoic acid], 7.00 to 8.00; for `CO/N=C(\COc1ccc(CNc2ccc(CCC(=O)O)cc2)cc1)c1ccccc1` [Compound 4, 3-{4-[(4-{[(2Z)-2-(Methoxyimino)-2-phenylethyl]oxy}benzyl)amino]phenyl}propanoic acid], 7.00 to 8.00. As for `C=CCO/N=C(\COc1ccc(COc2ccc(CCC(=O)O)cc2)cc1)c1ccccc1` [Compound 110, 3-(4-{[4-({(2E,2Z)-2-Phenyl-2-[(prop-2-en-1-yloxy)imino]ethyl}oxy)benzyl]oxy}phenyl)propanoic acid], the figure is over 8.00. As for `CO/N=C(\COc1ccc(COc2ccc(C3CC3C(=O)O)cc2)cc1)c1ccc(OC)cc1` (stereo not shown) [Compound 46, 2-{4-[(4-{[(2Z)-2-(Methoxyimino)-2-(4-methoxyphenyl)ethyl]oxy}benzyl)oxy]phenyl}cyclopropanecarboxylic acid], the negative-log EC50 (pEC50) is 7.00 to 8.00.

As for `CO/N=C(\COc1ccc(COc2ccc(C(C#N)CC(=O)O)cc2)cc1)c1ccc2c(c1)CCO2` (stereo not shown) [Compound 102, 3-Cyano-3-{4-[(4-{[(2Z)-2-(2,3-dihydro-1-benzofuran-5-yl)-2-(methoxyimino)ethyl]oxy}benzyl)oxy]phenyl}propanoic acid], the pEC50 was 7.00 to 8.00.

On to `CO/N=C(\COc1ccc(CNc2ccc([C@@H]3C[C@H]3C(=O)O)cc2)cc1)c1ccccc1C` [Compound 15, (1R,2R)-2-{4-[(4-{[(2Z)-2-(Methoxyimino)-2-(2-methylphenyl)ethyl]oxy}benzyl)amino]phenyl}cyclopropanecarboxylic acid], for which the negative-log EC50 (pEC50) was 7.00 to 8.00. As for `CO/N=C(/c1ccccc1)c1cccc(CNc2ccc(CCC(=O)O)cc2)c1` [Compound 2, 3-[4-({3-[(E,Z)-(Methoxyimino)(phenyl)methyl]benzyl}amino)phenyl]propanoic acid], the figure is 7.00 to 8.00; as for `CO/N=C(/COc1ccc(COc2ccc(C(C#N)CC(=O)O)cc2)cc1)c1ccccc1` (stereo not shown) [Compound 53, Sodium 3-cyano-3-{4-[(4-{[(2E)-2-(methoxyimino)-2-phenylethyl]oxy}benzyl)oxy]phenyl}propanoate], 7.00 to 8.00. For the compound `CO/N=C(/COc1ccc(COc2ccc(CCC(=O)O)cc2)cc1)c1ccc(C#N)cc1` (racemic) [Compound 28, 3-{4-[(4-{[(2E,2Z)-2-(4-Cyanophenyl)-2-(methoxyimino)ethyl]oxy}benzyl)oxy]phenyl}propanoic acid], the pEC50 was 7.00 to 8.00.

As for `CO/N=C(\COc1ccc(COc2ccc(C3CC3C(=O)O)cc2)cc1)c1ccc(C#N)cc1` (single isomer, unassigned) [Compound 80, Sodium 2-{4-[(4-{[(2Z)-2-(4-cyanophenyl)-2-(methoxyimino)ethyl]oxy}benzyl)oxy]phenyl}cyclopropanecarboxylate], the pEC50 is over 8.00. For `CO/N=C(\COc1ccc(COc2ccc(C(C#N)CC(=O)O)cc2)cc1)c1ccccc1` (stereo not shown) [Compound 16, 3-Cyano-3-{4-[(4-{[(2Z)-2-(methoxyimino)-2-phenylethyl]oxy}benzyl)oxy]phenyl}propanoic acid] the value was 7.00 to 8.00; for `CO/N=C(\COc1ccc(COc2ccc(C(C#N)CC(=O)O)cc2)cc1)c1ccc(F)cc1` (stereo not shown) [Compound 54, Sodium 3-cyano-3-{4-[(4-{[(2Z)-2-(4-fluorophenyl)-2-(methoxyimino)ethyl]oxy}benzyl)oxy]phenyl}propanoate], 7.00 to 8.00.

`CO/N=C(\COc1ccc(COc2ccc(C(C#N)CC(=O)O)cc2)cc1)c1ccc(F)cc1` (stereo not shown) [Compound 34, 3-Cyano-3-{4-[(4-{[(2Z)-2-(4-fluorophenyl)-2-(methoxyimino)ethyl]oxy}benzyl)oxy]phenyl}propanoic acid]: the negative logarithm of the EC50 (pEC50) was over 8.00. As for `O=C(O)CCc1ccc(NCc2cccc(/C(=N\OCC(F)(F)F)c3ccccc3)c2)cc1` [Compound 9, 3-{4-[(3-{(E,Z)-Phenyl[(2,2,2-trifluoroethoxy)imino]methyl}benzyl)amino]phenyl}propanoic acid], the figure is under 7.00; as for `O=C(O)CCc1ccc(OCc2ccc(OC/C(=N\OCc3ccccc3)c3ccccc3)cc2)cc1` [Compound 108, 3-(4-{[4-({(2E,2Z)-2-[(Benzyloxy)imino]-2-phenylethyl}oxy)benzyl]oxy}phenyl) propanoic acid], 7.00 to 8.00; as for `CC#CC(CC(=O)O)c1ccc(OCc2ccc(OC/C(=N\OC)c3ccccc3)cc2)cc1` (stereo not shown) [Compound 85, 3-{4-[(4-{[(2Z)-2-(Methoxyimino)-2-phenylethyl]oxy}benzyl)oxy]phenyl}hex-4-ynoic acid], over 8.00. As for `CO/N=C(\COc1ccc(COc2ccc([C@H]3C[C@@H]3C(=O)O)cc2)cc1)c1ccc(C#N)cc1` [Compound 64, (1S,2S)-2-{4-[(4-{[(2E,2Z)-2-(4-Cyanophenyl)-2-(methoxyimino)ethyl]oxy}benzyl)oxy]phenyl}cyclopropanecarboxylic acid], the figure is 7.00 to 8.00; as for `CO/N=C(\COc1ccc(COc2ccc(C(C#N)CC(=O)O)cc2)cc1)C1CC1` (stereo not shown) [Compound 105, 3-Cyano-3-{4-[(4-{[(2Z)-2-cyclopropyl-2-(methoxyimino)ethyl]oxy}benzyl)oxy]phenyl}propanoic acid], under 7.00. For the compound `CO/N=C(\COc1ccc(COc2ccc(C(C#N)CC(=O)O)cc2)cc1)c1cccc(F)c1` (stereo not shown) [Compound 35, 3-Cyano-3-{4-[(4-{[(2Z)-2-(3-fluorophenyl)-2-(methoxyimino)ethyl]oxy}benzyl)oxy]phenyl}propanoic acid], the pEC50 is 7.00 to 8.00. For `CO/N=C(\COc1ccc(COc2ccc(CCC(=O)O)c(C#N)c2)cc1)c1ccccc1` [Compound 42, 3-{2-Cyano-4-[(4-{[(2E,2Z)-2-(methoxyimino)-2-phenylethyl]oxy}benzyl)oxy]phenyl}propanoic acid] the value was under 7.00.

What is called pEC50 is the negative decadic logarithm of the EC50, by convention in mol/L.

Values taken from patent publication US9278915B2, “Agonists of GPR40” (CONNEXIOS LIFE SCIENCES PVT LTD, priority 2010, dated 2016).
